The results in this text go back to a melting point compilation (Tetko et al.).

The melting point is the temperature, or range, at which the solid turns liquid. With `NS(=O)(=O)c1ccccc1OC(F)(F)F`, the melting point turned out to be 188 °C.

The compound `CCOC(=O)c1ccccc1C(=O)c1ccccc1` gave a melting point of 59.5 °C.

As to `N#CCCP(CCC#N)c1ccccc1`, the melting point is 73 °C.

In turn, `CN(C)C(=N)N(C)C` yielded a melting point of -30 °C.

With `NC(=O)CN1Cc2ccccc2OC1=O`, the melting point is 203 °C.

`CCOC(=O)c1cnc(SC)nc1Cl` yielded a melting point of 62 °C.

Compound `CC(=O)c1ccc(Oc2ccc(Cl)cc2)cc1Cl` gave a melting point of 54 to 56 °C.

Compound `COC(=O)c1cc2cc3cc(C(=O)OC)c(C(=O)OC)cc3cc2cc1C(=O)OC` yielded a melting point of 220 °C.

The compound `N[C@H]1CC[C@@H](C(=O)O)CC1` had a melting point of 300 °C.

As to `O=S1(=O)OC(Cl)c2ccccc21` (configuration not stated), the melting point is 110 to 116 °C.

`Oc1cc(C(F)(F)F)nc(S)n1` had a melting point of 251 °C.

`COc1ccccc1C(O)=C1C(=O)CN(C(C)C)C1=O`: the melting point fell in the range of 99 to 100 °C.

`NNc1ccc([N+](=O)[O-])cn1`: the melting point amounted to 206 °C.

In the case of `CC1=C/C(=N/NC(N)=O)C(C(C)C)CC1` (configuration not stated), the melting point is 219 to 220 °C.

`CN(c1c(F)c(F)c(-c2c(F)c(F)c(F)c(F)c2F)c(F)c1F)[N+](=O)[O-]` registered a melting point of 140 °C.

In turn, `CN(C)C=Nc1c(I)cc(I)c(CCC(=O)O)c1I` returned a melting point of 168 °C.

In turn, `O=C(O)c1ccc(F)cc1C(F)(F)F` yielded a melting point of 123 °C.

`N#Cc1cnn2c(C(F)(F)F)cc(C(F)(F)F)nc12` displayed a melting point of 75 to 77 °C.

`FC(=C(F)C(F)(F)F)C(F)(F)F` registered a melting point of -129 °C.

Turning to `N#CCCCOc1ccccc1`, the melting point worked out at 45.5 °C.

As to `CCCC1COC(Cn2cncn2)(c2ccc(Cl)cc2Cl)O1` (configuration not stated), the melting point is under 25 °C.

On to `CCCC1CC(C(=O)NC(C(C)Cl)C2OC(SC)C(O)C(O)C2O)N(C)C1` (configuration not stated), for which the melting point stood at 141 °C.

For the compound `CC(C)C(C)C(O)C(O)C(C)C1CCC2C3COC(=O)C4CC(O)C(O)CC4(C)C3CCC12C` (configuration not stated), the melting point was 255 °C.

Consider `CC(=O)CCc1cc2c(cc1N=Nc1ccccc1C(=O)O)CCC(C)N2` (configuration not stated), for which the melting point is 157 °C.

`O=C1C(CCl)(CCl)CCC1(CCl)CCl` registered a melting point of 72 °C.

`Cc1ccc(C(=O)c2ccccc2N)cc1` came in with a melting point of 91 to 94 °C.

`NC(=O)CCOC1CCN(Cc2ccccc2)CC1`: the melting point lay within 73 to 75 °C.

For `C=CCC1(C(C)CCC)C(=O)NC(=S)NC1=O` (configuration not stated), the melting point was 132 °C.

Compound `O=C(Cn1ccnc1[N+](=O)[O-])NCc1ccccc1` returned a melting point of 189 °C.

`Cc1ccc(-c2csc(/C(C#N)=N\Nc3cccc([N+](=O)[O-])c3)n2)cc1` showed a melting point of 225 °C.

`CCOC(=O)C1(S(=O)(=O)c2ccc(C)cc2)CCC1`: the melting point stood at 53.5 °C.

`CC(C)=CCNC(=N)N` yielded a melting point of 62.5 °C.

`OCC1NC(CO)C(O)C1O` (configuration not stated): the melting point came out at 102 °C.

In the case of `Nc1c(C=O)cnn1-c1ccc(Cl)cc1`, the melting point stood at 80 °C.

Compound `O=C=Nc1ccc(F)c([N+](=O)[O-])c1` gave a melting point of 27 to 28 °C.

As to `Cc1cccc(C)c1N(C(=O)CCl)C1CCOC1=O` (configuration not stated), the melting point came out at 146 °C.

Regarding `Nc1ccc(S(=O)(=O)N2CCCCC2)cc1`, the melting point lay in the range of 169 to 170 °C.

Regarding `Ic1nccn1C(c1ccccc1)(c1ccccc1)c1ccccc1`, the melting point turned out to be 171 °C.

`O=C(O)c1cn2nc(Cl)ccc2n1` yielded a melting point of 248 to 249 °C.

Regarding `O=[N+]([O-])c1cccc(-c2nnc3n2NC(c2ccccc2O)S3)c1` (configuration not stated), the melting point is 210 °C.

In turn, `O=[N+]([O-])c1cccc(-c2nnc3n2CN(c2ccccc2[N+](=O)[O-])CS3)c1` registered a melting point of 183 °C.

`Cc1nccn1-c1ccccc1C(=O)O` showed a melting point of 232 to 234 °C.

Compound `O=C1CCCN1c1ccc(Br)cc1` came in with a melting point of 98 to 101 °C.

In turn, `C=CCC(CC)(CC)C(N)=O` displayed a melting point of 75 °C.

For `O=C(C(=O)c1ccc(Cl)cc1)c1ccccc1`, the melting point was 67 °C.

As for `O=C(O)C1CC(=O)N(Cc2ccco2)C1` (configuration not stated), the melting point is 159 to 160 °C.

`COC(=O)[C@H]1C[C@H](NC(=O)OC(C)(C)C)[C@@H](O)C1` had a melting point of 71.2 °C.

As for `Oc1ccc(Br)c(F)c1`, the melting point fell in the range of 71.5 to 72.5 °C.

Turning to `COc1ccc(Br)cc1C#N`, the melting point was 91 °C.

Take `NN=C(/C(=N/N)c1ccccc1)c1cccc2ccccc12`: the melting point lay in the range of 217 to 218 °C.

Consider `COC1=CC(c2ccccc2)c2ccccc21` (configuration not stated), for which the melting point is 68 °C.

`Cc1ccccc1C1=Cc2ccccc2C2(OCCO2)O1`: the melting point is 75 °C.

The compound `CC(C)(C)OC(=O)N[C@H]1CCCNC1` gave a melting point of 125 °C.

For the compound `C=CCOc1ccc(CC(=O)O)cc1Cl`, the melting point came to 92 °C.

As to `COc1cc(CCO)ccc1O`, the melting point came out at 41 °C.

`CCC(CCC(C)C1CCC2C3=CC=C4CC(O)CCC4(C)C3CCC21C)C(C)C` (configuration not stated): the melting point is 144 °C.

`C[Si]1(C)Oc2ccc3ccccc3c2-c2c(ccc3ccccc23)O[Si](C)(C)O1` showed a melting point of 173 °C.

`O=c1n(Cl)c(=O)n(Cl)c(=O)n1Cl` displayed a melting point of 249 °C.

The compound `O=C1NC(=S)NC(=O)C1=Cc1ccc(-c2ccc(Cl)cc2)o1` yielded a melting point of 280 °C.

`CCC(O)c1ccc(-c2ccccc2F)cc1` (configuration not stated) came in with a melting point of 55 to 56 °C.

On to `O=C(Nc1nnc(-c2ccc(Cl)cc2)o1)c1ccc(Cl)cc1Cl`, for which the melting point fell in the range of 212 to 213 °C.

Consider `O=C=Nc1ccc(-c2cccs2)cc1`, for which the melting point is 65 to 66 °C.

`CCN(CC)CCNC(=O)c1cc(S(C)(=O)=O)ccc1OC` came in with a melting point of 124 °C.

Take `c1ccc2cc3c(cc2c1)OCCOCCOCCOCCO3`: the melting point lay within 117 to 118 °C.

The compound `CC(C=CC=C(C)C=CC12OC1(C)CC(O)CC2(C)C)=CC=CC=C(C)C=CC=C(C)C=CC12OC1(C)CC(O)CC2(C)C` (configuration not stated) had a melting point of 208 °C.

`COC(=O)Cn1nnc(N2CCOCC2)n1` gave a melting point of 100 to 103 °C.

For the compound `CCOC(=O)C1C(=N)Oc2c(c(=O)oc3ccccc23)C1c1ccc(Br)cc1` (configuration not stated), the melting point worked out at 192 °C.

Consider `CC1(C)OC(=O)C(=Cc2ccc(-c3ccc(Cl)cc3)o2)C(=O)O1`, for which the melting point amounted to 109 °C.

Compound `COC(=O)Nc1nc2cc(C(=O)c3ccc(F)cc3)ccc2[nH]1` came in with a melting point of 260 °C.

On to `O=Cc1ccc(SCc2ccco2)c([N+](=O)[O-])c1`, for which the melting point fell in the range of 153 to 154 °C.

For the compound `CCC(Br)C(=O)O` (configuration not stated), the melting point was -4 °C.

In turn, `CC(O)CCO` (configuration not stated) registered a melting point of -54 °C.

For the compound `Cc1csc2sc(C=O)c(C)c12`, the melting point is 147 to 149 °C.

For `C/C(=N\c1ccc(C(=O)O)c(O)c1)c1c(O)c2ccccc2n(-c2ccccc2)c1=O`, the melting point is 177 °C.

`CCOC(=O)NC(=S)Nc1cccc(C)n1`: the melting point lay within 127 to 129 °C.

`Cc1cc(C(F)(C(F)(F)F)C(F)(F)F)ccc1NC(=O)c1cccc(I)c1C(=O)NC(C)(C)CS(C)(=O)=O` displayed a melting point of 218 °C.

For `COc1ccc(-c2cc[nH]n2)cc1`, the melting point was 127 to 130 °C.

The compound `Ic1ccc(-n2cccn2)cc1` yielded a melting point of 91 to 92 °C.

`O=C1c2ccccc2C(=O)N1CCNCCN1C(=O)c2ccccc2C1=O` returned a melting point of 132 °C.

As to `O=c1[nH][nH]c(=O)[nH]1`, the melting point amounted to 250 °C.

In turn, `NCC(c1ccccc1)c1ccccc1` yielded a melting point of 43 to 49 °C.

`COc1cc2c(cc1O)CN(C1CC=CC(=O)C1)CC2` (configuration not stated) gave a melting point of 254 to 257 °C.

Take `Clc1ccc(C=NC2Nc3ccccc3N2)cc1`: the melting point was 155 °C.

For `Cc1cc(Cl)c([N+](=O)[O-])cc1[N+](=O)[O-]`, the melting point was 90 °C.

Regarding `O=C(NC(=S)Nc1ccccn1)c1ccccc1`, the melting point lay within 144 to 147 °C.

The compound `Cc1cc(C(C)(C)C)cc(C(C)(C)C)c1` gave a melting point of 32 °C.

For the compound `Brc1cccc(N2CCCC2)n1`, the melting point lay within 86 to 88 °C.

Turning to `N#Cc1cc([N+](=O)[O-])cc(Br)c1N`, the melting point amounted to 188 °C.

On to `O=C(CCl)c1ccc(C(=O)C(Cl)Cl)cc1`, for which the melting point came out at 147 °C.

As to `COc1ccccc1OC(C)=O`, the melting point amounted to 31.5 °C.

Compound `CSc1nc2ccccc2c(=O)n1-c1ccccc1` showed a melting point of 123 to 125 °C.

`N#CC1C(=S)NC2(C(=O)Nc3ccccc32)C2=C1CCCC2` (configuration not stated) gave a melting point of 222 °C.

Take `Cc1c2ccccc2cc2ccc3ccccc3c12`: the melting point amounted to 138 °C.

The compound `N#CCCO` displayed a melting point of -46 °C.

In turn, `CCOC(=O)C1C(c2ccc(C)cc2)C(C(=O)OCC)C(O)(C(F)(F)F)NC1(O)C(F)(F)F` (configuration not stated) displayed a melting point of 93 °C.

On to `O=C(O)c1cc(Br)ccc1Cl`, for which the melting point is 160 °C.

Turning to `Clc1cc(I)ccn1`, the melting point turned out to be 43 °C.

`O=[N+]([O-])c1ccc2ccc3cccc4ccc1c2c34` displayed a melting point of 155 °C.

Compound `Clc1cc2ccccc2c2ccccc12` came in with a melting point of 46 to 50 °C.

`COc1ccc(-c2cc(N3CCCC3)cc3c2c(=O)n(-c2ccccc2)n3C)cc1` came in with a melting point of 217 °C.

`CCCCS(=O)(=O)NC(Cc1ccc(OCCCCC2CCNCC2)cc1)C(=O)O` (configuration not stated) returned a melting point of 223 °C.

In the case of `C#CC1(O)CCC2C3CCc4cc(OC5CCCC5)ccc4C3CCC21C` (configuration not stated), the melting point amounted to 108 °C.

With `ClCc1nc(-c2ccccc2)no1`, the melting point stood at 42 °C.

Regarding `O=Cc1ccc2cccnc2n1`, the melting point was in the range of 138 to 143 °C.

`CN1CC[C@@H](c2ccc(F)cc2)[C@H](CO)C1` had a melting point of 97 to 101 °C.

In the case of `C=CCOC(=O)Nc1cc(O)cc(C(=O)O)c1`, the melting point fell in the range of 194 to 197 °C.

In turn, `N#CC(c1ccccc1)N1CCOCC1` (configuration not stated) displayed a melting point of 69 to 71 °C.
